Data as given in ChEMBL document CHEMBL1201862, “PubChem BioAssay data set” (2004).
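96-well plates; 48 h exposure; 5 concentrations. Endpoints by linear interpolation between flanking doses. Not reached: highest tested concentration assigned. Here, GI50 denotes the concentration required for 50% inhibition of growth.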 The source made the active and inactive calls. Rule as the data show it: active = GI50 up to about 1.1 µM and inactive = higher.

Tests used:
Assay in all cases: NCI tumour cell line growth inhibition, 48 h
[1] = test system: SNB-19
[2] = test system: HT-29
[3] = test system: NCI-H522
[4] = test system: A549
[5] = test system: Malme-3M
[6] = test system: A498
[7] = test system: EKVX
[8] = test system: MDA-N
[9] = test system: NCI/ADR-RES
[10] = test system: SR
[11] = test system: MDA-MB-435
[12] = test system: MCF7
[13] = test system: T47D
[14] = test system: CCRF-CEM
[15] = test system: SN12C
[16] = test system: DU-145
[17] = test system: HL-60
[18] = test system: OVCAR-4

Compound	GI50 [1]	GI50 [2]	GI50 [3]	GI50 [4]	GI50 [5]	GI50 [6]	GI50 [7]	GI50 [8]	GI50 [9]	GI50 [10]	GI50 [11]	GI50 [12]	GI50 [13]	GI50 [14]	GI50 [15]	GI50 [16]	GI50 [17]	GI50 [18]
Nc1cc(F)ccc1CC(=O)O	> 100 µM (inactive)	> 100 µM (inactive)	> 100 µM (inactive)	> 100 µM (inactive)	> 100 µM (inactive)	> 100 µM (inactive)	> 100 µM (inactive)	> 100 µM (inactive)	> 100 µM (inactive)	> 100 µM (inactive)	> 100 µM (inactive)	> 100 µM (inactive)	> 100 µM (inactive)	> 100 µM (inactive)	> 100 µM (inactive)	> 100 µM (inactive)	> 100 µM (inactive)	
CC(C)c1cc(CN(C)C)c(O)c(C(C)(C)C)c1	23.6 µM (inactive)	36.2 µM (inactive)	15.9 µM (inactive)	23.2 µM (inactive)	22.2 µM (inactive)	20.7 µM (inactive)	28.7 µM (inactive)	26.6 µM (inactive)	65.3 µM (inactive)		36.3 µM (inactive)	16.5 µM (inactive)	24.7 µM (inactive)	16.4 µM (inactive)	18.9 µM (inactive)	36.4 µM (inactive)	6.04 µM (inactive)	28.8 µM (inactive)
COc1ccc(/C=C(\C#N)c2nc3ccccc3c(=O)[nH]2)cc1	12.9 µM (inactive)	> 100 µM (inactive)	10.6 µM (inactive)	45.9 µM (inactive)	> 100 µM (inactive)		59.6 µM (inactive)	> 100 µM (inactive)	20.3 µM (inactive)	39.4 µM (inactive)	> 100 µM (inactive)	34.4 µM (inactive)	20.6 µM (inactive)	> 100 µM (inactive)	33.6 µM (inactive)	23.1 µM (inactive)	> 100 µM (inactive)	20.3 µM (inactive)
C[C@@H](NC(=O)[C@@H]1C[C@]1(C)COC(=O)c1cc([N+](=O)[O-])cc([N+](=O)[O-])c1)c1cccc2ccccc12	> 100 µM (inactive)	52.2 µM (inactive)		> 100 µM (inactive)	6.87 µM (inactive)	> 100 µM (inactive)	> 100 µM (inactive)	> 100 µM (inactive)	> 100 µM (inactive)	> 100 µM (inactive)	> 100 µM (inactive)	> 100 µM (inactive)	65.3 µM (inactive)	> 100 µM (inactive)	> 100 µM (inactive)	> 100 µM (inactive)		> 100 µM (inactive)
O=C1C(C(O)(C(F)(F)Cl)C(F)(F)Cl)CCC1C(O)(C(F)(F)Cl)C(F)(F)Cl (configuration not stated)	4.3 µM (inactive)	3.26 µM (inactive)	4.45 µM (inactive)	9.57 µM (inactive)	5.47 µM (inactive)	3.85 µM (inactive)	4.1 µM (inactive)	> 10 µM (inactive)	> 10 µM (inactive)	> 10 µM (inactive)	> 10 µM (inactive)	3.48 µM (inactive)	4.44 µM (inactive)		6.87 µM (inactive)	3.81 µM (inactive)	> 10 µM (inactive)	3.4 µM (inactive)
O=CN1CCN(C(=O)c2cc(Cl)cc(Cl)c2)C1=S	20.5 µM (inactive)	24.3 µM (inactive)	3.5 µM (inactive)	20.8 µM (inactive)	3.12 µM (inactive)	15.3 µM (inactive)	17.9 µM (inactive)	18.8 µM (inactive)	28.9 µM (inactive)		14.2 µM (inactive)	3.47 µM (inactive)	10.7 µM (inactive)	5.38 µM (inactive)	15.6 µM (inactive)	16.8 µM (inactive)	10.3 µM (inactive)	17.1 µM (inactive)
O=C1c2cccc3cc([N+](=O)[O-])cc(c23)C(=O)N1O	43.9 µM (inactive)	31 µM (inactive)	58.7 µM (inactive)	33.6 µM (inactive)	28.4 µM (inactive)		47.9 µM (inactive)	47 µM (inactive)	40.8 µM (inactive)	24.5 µM (inactive)	34.3 µM (inactive)	24.8 µM (inactive)	37.2 µM (inactive)	27 µM (inactive)	33.5 µM (inactive)	37.5 µM (inactive)	> 100 µM (inactive)	34.1 µM (inactive)
ON=C1CCCCC(=NO)CCCC1	> 100 µM (inactive)	> 100 µM (inactive)	> 100 µM (inactive)	> 100 µM (inactive)	> 100 µM (inactive)	> 100 µM (inactive)		> 100 µM (inactive)	> 100 µM (inactive)		> 100 µM (inactive)	> 100 µM (inactive)	> 100 µM (inactive)		> 100 µM (inactive)	> 100 µM (inactive)		> 100 µM (inactive)
O=C1Nc2ccc(Br)cc2/C1=N/c1ccc(Cl)cc1	28 µM (inactive)	12.1 µM (inactive)	7.66 µM (inactive)	25.4 µM (inactive)	24.8 µM (inactive)	> 100 µM (inactive)	15.9 µM (inactive)	6.98 µM (inactive)	12.6 µM (inactive)	6.21 µM (inactive)	2.87 µM (inactive)	10.2 µM (inactive)	16.9 µM (inactive)	11.6 µM (inactive)	13 µM (inactive)	47.2 µM (inactive)	5.48 µM (inactive)	
CC(=O)N1N=C(c2ccc3ccccc3c2O)CC1c1ccc(N(C)C)cc1 (configuration not stated)		> 100 µM (inactive)	> 100 µM (inactive)	> 100 µM (inactive)	> 100 µM (inactive)	> 100 µM (inactive)		> 100 µM (inactive)	> 100 µM (inactive)	10.9 µM (inactive)	> 100 µM (inactive)	> 100 µM (inactive)	> 100 µM (inactive)	> 100 µM (inactive)	> 100 µM (inactive)	> 100 µM (inactive)		> 100 µM (inactive)
N#CC(C#N)=CNCCN1CCN(C=C(C#N)C#N)CC1	> 100 µM (inactive)	> 100 µM (inactive)	> 100 µM (inactive)	> 100 µM (inactive)	> 100 µM (inactive)	> 100 µM (inactive)	> 100 µM (inactive)	> 100 µM (inactive)	> 100 µM (inactive)	> 100 µM (inactive)	> 100 µM (inactive)	> 100 µM (inactive)	> 100 µM (inactive)		> 100 µM (inactive)	> 100 µM (inactive)	> 100 µM (inactive)	> 100 µM (inactive)
Cc1cc(O)c2c(c1)C(C1c3cccc(O)c3C(=O)c3c(O)cc(C)cc31)c1cccc(O)c1C2=O (configuration not stated)	0.239 µM (active)	0.378 µM (active)	0.417 µM (active)	0.239 µM (active)	0.329 µM (active)		0.417 µM (active)	0.705 µM (active)	0.319 µM (active)	0.345 µM (active)	0.34 µM (active)	0.331 µM (active)	0.631 µM (active)	0.906 µM (active)	0.322 µM (active)	0.4 µM (active)	0.879 µM (active)	0.26 µM (active)
Cc1cn(CCCCOC(=O)NC(CCCNC(=N)N)C(=O)O)c(=O)[nH]c1=O (configuration not stated)	> 100 µM (inactive)	> 100 µM (inactive)		> 100 µM (inactive)		> 100 µM (inactive)	> 100 µM (inactive)	> 100 µM (inactive)	> 100 µM (inactive)	> 100 µM (inactive)	> 100 µM (inactive)	> 100 µM (inactive)	> 100 µM (inactive)	> 100 µM (inactive)	> 100 µM (inactive)	> 100 µM (inactive)	> 100 µM (inactive)	> 100 µM (inactive)
Nc1ccc(C(=O)O)cc1 [AMINOBENZOIC ACID]	> 100 µM (inactive)	> 100 µM (inactive)	> 100 µM (inactive)	> 100 µM (inactive)	> 100 µM (inactive)		> 100 µM (inactive)	> 100 µM (inactive)	> 100 µM (inactive)	> 100 µM (inactive)	> 100 µM (inactive)	> 100 µM (inactive)	> 100 µM (inactive)	> 100 µM (inactive)	28.7 µM (inactive)	> 100 µM (inactive)	> 100 µM (inactive)	> 100 µM (inactive)
CC(Oc1ccc(Cl)cc1Cl)C(=O)NN1C(=O)CC(=O)NC1=S (configuration not stated)	> 100 µM (inactive)	> 100 µM (inactive)	> 100 µM (inactive)	> 100 µM (inactive)	> 100 µM (inactive)	90.8 µM (inactive)	> 100 µM (inactive)	> 100 µM (inactive)	> 100 µM (inactive)	> 100 µM (inactive)	> 100 µM (inactive)	76.7 µM (inactive)	31.8 µM (inactive)		> 100 µM (inactive)	> 100 µM (inactive)	30.9 µM (inactive)	> 100 µM (inactive)
Cc1cc(=O)n2nc(SCc3ccccc3)sc2n1	> 100 µM (inactive)	> 100 µM (inactive)	> 100 µM (inactive)	> 100 µM (inactive)	> 100 µM (inactive)	> 100 µM (inactive)		> 100 µM (inactive)	> 100 µM (inactive)	> 100 µM (inactive)	66.4 µM (inactive)	> 100 µM (inactive)	42.3 µM (inactive)	> 100 µM (inactive)	> 100 µM (inactive)	> 100 µM (inactive)	> 100 µM (inactive)	> 100 µM (inactive)
CC(=O)OC1CCC2(C)C(CCC3C4CC=C(C5(C)OCCO5)C4(C)CCC32)C1 (configuration not stated)	30.2 µM (inactive)	19.5 µM (inactive)		26.7 µM (inactive)	22.1 µM (inactive)	24.9 µM (inactive)	21.7 µM (inactive)	20.3 µM (inactive)	20.6 µM (inactive)	17.1 µM (inactive)	20.3 µM (inactive)	22.6 µM (inactive)	22.9 µM (inactive)	19.5 µM (inactive)	19.6 µM (inactive)	41.3 µM (inactive)	19.9 µM (inactive)	19.7 µM (inactive)
